pKi: −log10 of the molar value.
Key:
Experiment in all cases: Inhibitory Assay
[1] = molecular target: Nitric oxide synthase, brain (Homo sapiens, UniProt P29475)
Text: (§1) Inhibition assay using nitric oxide synthases.

[2] = molecular target: T1, Nitric oxide synthase, endothelial (Homo sapiens, UniProt P29474)
T1 sequence (P29474 whole entry): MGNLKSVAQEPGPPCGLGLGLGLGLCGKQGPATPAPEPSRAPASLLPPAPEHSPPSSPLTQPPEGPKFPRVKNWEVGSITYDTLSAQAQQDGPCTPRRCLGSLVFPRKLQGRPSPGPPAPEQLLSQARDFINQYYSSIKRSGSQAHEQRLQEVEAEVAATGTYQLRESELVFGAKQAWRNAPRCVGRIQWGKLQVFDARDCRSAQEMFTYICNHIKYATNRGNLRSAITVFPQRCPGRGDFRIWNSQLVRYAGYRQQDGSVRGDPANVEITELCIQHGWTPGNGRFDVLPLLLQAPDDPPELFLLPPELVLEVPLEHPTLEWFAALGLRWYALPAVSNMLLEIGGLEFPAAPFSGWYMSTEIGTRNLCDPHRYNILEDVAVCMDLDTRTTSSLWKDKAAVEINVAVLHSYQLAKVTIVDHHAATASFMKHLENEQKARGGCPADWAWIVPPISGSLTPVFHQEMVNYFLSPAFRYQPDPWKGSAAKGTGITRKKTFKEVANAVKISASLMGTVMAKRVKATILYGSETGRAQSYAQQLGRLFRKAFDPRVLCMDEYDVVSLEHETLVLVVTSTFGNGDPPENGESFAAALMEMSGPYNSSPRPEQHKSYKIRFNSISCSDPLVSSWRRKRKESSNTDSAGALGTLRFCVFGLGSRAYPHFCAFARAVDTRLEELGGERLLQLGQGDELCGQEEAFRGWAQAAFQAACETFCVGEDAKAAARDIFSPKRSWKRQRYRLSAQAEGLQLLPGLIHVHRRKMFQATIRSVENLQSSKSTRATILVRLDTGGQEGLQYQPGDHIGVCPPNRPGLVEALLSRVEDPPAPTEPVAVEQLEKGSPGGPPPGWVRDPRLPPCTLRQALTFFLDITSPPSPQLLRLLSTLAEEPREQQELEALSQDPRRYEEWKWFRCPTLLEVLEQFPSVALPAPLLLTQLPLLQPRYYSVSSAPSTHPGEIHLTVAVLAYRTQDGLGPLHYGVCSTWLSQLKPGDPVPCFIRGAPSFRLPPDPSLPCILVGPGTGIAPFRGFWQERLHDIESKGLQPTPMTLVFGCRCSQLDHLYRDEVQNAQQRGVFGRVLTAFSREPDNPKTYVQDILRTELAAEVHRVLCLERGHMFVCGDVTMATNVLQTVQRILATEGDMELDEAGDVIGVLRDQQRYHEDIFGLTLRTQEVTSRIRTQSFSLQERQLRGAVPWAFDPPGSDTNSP
Text: as §1

[3] = molecular target: Nitric oxide synthase, inducible (Homo sapiens, UniProt P35228)
Text: as §1

Chain of Nitric oxide synthase, inducible (P35228 whole entry): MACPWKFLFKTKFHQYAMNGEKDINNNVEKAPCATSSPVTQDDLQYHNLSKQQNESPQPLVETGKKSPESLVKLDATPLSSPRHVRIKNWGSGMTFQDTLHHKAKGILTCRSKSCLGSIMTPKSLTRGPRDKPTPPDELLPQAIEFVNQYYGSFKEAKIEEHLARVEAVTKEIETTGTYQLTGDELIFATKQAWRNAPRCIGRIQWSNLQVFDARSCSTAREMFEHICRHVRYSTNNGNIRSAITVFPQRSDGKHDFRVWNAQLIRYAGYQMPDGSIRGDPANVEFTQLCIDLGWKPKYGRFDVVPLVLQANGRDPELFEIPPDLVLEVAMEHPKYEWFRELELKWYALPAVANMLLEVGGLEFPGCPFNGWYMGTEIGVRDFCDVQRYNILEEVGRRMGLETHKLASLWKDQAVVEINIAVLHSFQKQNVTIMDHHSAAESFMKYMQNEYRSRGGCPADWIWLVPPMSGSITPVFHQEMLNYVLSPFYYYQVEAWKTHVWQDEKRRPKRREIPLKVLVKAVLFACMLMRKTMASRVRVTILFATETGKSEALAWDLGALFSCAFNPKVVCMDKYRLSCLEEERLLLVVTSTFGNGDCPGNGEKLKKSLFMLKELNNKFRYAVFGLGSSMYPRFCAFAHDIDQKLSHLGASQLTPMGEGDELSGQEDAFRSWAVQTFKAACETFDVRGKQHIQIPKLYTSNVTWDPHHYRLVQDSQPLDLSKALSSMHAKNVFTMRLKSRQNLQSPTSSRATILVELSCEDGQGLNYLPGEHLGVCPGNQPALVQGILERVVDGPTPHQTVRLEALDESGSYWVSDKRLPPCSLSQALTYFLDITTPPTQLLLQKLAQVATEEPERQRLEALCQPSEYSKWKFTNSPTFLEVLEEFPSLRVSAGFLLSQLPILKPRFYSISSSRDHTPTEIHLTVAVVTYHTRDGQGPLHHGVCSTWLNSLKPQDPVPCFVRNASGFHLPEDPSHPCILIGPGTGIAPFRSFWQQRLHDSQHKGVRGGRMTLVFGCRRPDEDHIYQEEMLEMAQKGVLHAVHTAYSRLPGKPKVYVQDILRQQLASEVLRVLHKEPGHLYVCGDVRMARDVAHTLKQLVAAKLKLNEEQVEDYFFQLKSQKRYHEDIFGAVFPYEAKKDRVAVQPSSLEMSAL
Chain of Nitric oxide synthase, brain (P29475 whole entry): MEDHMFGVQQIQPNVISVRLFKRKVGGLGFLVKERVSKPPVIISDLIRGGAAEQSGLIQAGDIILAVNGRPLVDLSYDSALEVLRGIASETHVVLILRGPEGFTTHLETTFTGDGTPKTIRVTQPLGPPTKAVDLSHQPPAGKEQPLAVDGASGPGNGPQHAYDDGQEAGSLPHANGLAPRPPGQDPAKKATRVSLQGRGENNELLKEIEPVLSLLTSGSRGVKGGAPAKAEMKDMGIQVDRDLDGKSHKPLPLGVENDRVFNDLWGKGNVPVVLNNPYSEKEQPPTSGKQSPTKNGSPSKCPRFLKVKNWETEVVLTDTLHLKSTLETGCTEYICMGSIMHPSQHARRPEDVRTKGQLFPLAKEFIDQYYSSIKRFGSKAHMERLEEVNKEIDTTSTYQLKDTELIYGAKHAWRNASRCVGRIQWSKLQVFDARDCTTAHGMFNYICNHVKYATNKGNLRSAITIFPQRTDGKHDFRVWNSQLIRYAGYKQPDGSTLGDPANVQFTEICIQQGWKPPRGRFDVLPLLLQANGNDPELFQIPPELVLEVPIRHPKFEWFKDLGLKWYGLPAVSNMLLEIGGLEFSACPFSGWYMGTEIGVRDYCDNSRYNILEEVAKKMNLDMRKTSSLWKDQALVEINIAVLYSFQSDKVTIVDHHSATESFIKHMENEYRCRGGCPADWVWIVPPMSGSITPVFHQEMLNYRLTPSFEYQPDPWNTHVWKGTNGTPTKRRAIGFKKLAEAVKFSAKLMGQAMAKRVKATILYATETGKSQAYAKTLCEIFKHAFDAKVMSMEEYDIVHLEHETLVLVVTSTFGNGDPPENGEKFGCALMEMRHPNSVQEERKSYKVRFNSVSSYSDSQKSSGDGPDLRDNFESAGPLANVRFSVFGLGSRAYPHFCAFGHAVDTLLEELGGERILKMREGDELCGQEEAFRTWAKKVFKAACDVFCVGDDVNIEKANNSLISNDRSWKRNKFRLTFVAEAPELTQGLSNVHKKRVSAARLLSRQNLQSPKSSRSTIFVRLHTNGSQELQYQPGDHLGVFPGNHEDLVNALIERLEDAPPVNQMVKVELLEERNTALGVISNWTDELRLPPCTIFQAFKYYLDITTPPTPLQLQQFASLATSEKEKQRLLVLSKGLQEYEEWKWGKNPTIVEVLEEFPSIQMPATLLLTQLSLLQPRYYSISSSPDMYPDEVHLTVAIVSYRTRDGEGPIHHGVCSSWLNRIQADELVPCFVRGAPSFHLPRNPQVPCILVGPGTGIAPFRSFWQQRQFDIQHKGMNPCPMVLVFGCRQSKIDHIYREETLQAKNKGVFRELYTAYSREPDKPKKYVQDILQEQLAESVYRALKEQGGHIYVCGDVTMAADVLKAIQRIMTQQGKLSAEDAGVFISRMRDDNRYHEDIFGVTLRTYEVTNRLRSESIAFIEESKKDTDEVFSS

Row | pKi [1] | pKi [2] | pKi [3] | SMILES
1 | 7.07 | 5.31 | 5.47 | Cc1cc(N)nc(CCc2cc(N)cc(CCc3cc(C)cc(N)n3)c2)c1 [6,6'-[(5-aminobenzene-1,3-diyl)diethane-2,1-diyl]bis(4-methylpyridin-2-amine)]
2 | 6.99 | 4.79 | 5.72 | Cc1cc(N)nc(CCc2cncc(CCc3cc(C)nc(N)c3)c2)c1 [6-(2-{5-[2-(2-amino-6-methylpyridin-4-yl)ethyl]pyridin-3-yl}ethyl)-4-methylpyridin-2-amine]
3 | 6.71 | 4.70 | 4.90 | Cc1cc(N)nc(CCc2cccc(CCc3cc(C)nc(N)c3)n2)c1
4 |  | 5.38 | 5.56 | Cc1cc(N)nc(CCc2cccc(CCc3cc(C)cc(N)n3)c2)c1 [NOS Inhibitor, 3h]

Source: BindingDB's records for doi:10.1021/bi1013479 (University of California Irvine, 2010)
